Numbered stars: 1 amine (or outer) side, 2 acyl side, 3 side chain; on linkers, the order of the positions; unused ones are H or OH. Square brackets hold non-standard residues; d marks the D form. Side chains are listed from the residue outwards. Peptide text beside a SMILES is read from it. * marks the point of attachment. C20 diacid = O=C(O)CCCCCCCCCCCCCCCCCCC(=O)*; αMePhe(2-F) = C[C@](N)(Cc1ccccc1F)C(=O)O; γGlu = O=C(O)[C@H](CCC(=O)[*:2])N[*:1]; αMeF = C[C@](N)(Cc1ccccc1)C(=O)O; αMeL = CC(C)C[C@](C)(N)C(=O)O; AEEA = NCCOCCOCC(=O)O; Aib = CC(C)(N)C(=O)O
How the values were obtained:
[1] = target: human GLP-1 receptor (GLP-1R) (Homo sapiens, UniProt P43220); assay: cAMP pharmacological functional assay in presence of casein, hGLP-1R; assay type: cell-based; settings: HEK293 cells expressing hGLP-1R, 0.1% Casein, geometric mean; read-out: hGLP1R cAMP Rel EC50 nM (SEM, n)
Sequence of human GLP-1 receptor (GLP-1R) (P43220 24-463): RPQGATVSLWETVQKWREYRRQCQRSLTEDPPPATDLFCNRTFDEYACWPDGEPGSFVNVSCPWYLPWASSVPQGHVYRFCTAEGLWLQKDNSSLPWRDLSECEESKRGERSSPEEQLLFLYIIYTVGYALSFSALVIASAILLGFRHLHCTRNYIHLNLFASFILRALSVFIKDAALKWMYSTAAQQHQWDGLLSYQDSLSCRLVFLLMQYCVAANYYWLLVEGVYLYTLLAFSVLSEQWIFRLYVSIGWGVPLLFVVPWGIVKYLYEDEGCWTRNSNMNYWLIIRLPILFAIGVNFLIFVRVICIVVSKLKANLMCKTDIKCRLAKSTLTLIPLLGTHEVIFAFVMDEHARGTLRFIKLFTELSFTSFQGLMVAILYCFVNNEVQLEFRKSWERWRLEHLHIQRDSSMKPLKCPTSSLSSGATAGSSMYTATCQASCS

[2] = target: T1, gastric inhibitory peptide receptor (GIPR) (Homo sapiens, UniProt P48546); assay: cAMP pharmacological functional assay in presence of casein, hGIPR; assay type: cell-based; settings: HEK293 cells expressing hGIPR, 0.1% Casein, geometric mean; read-out: hGIPR cAMP Rel EC50 nM (SEM, n)
T1 sequence (P48546 22-466): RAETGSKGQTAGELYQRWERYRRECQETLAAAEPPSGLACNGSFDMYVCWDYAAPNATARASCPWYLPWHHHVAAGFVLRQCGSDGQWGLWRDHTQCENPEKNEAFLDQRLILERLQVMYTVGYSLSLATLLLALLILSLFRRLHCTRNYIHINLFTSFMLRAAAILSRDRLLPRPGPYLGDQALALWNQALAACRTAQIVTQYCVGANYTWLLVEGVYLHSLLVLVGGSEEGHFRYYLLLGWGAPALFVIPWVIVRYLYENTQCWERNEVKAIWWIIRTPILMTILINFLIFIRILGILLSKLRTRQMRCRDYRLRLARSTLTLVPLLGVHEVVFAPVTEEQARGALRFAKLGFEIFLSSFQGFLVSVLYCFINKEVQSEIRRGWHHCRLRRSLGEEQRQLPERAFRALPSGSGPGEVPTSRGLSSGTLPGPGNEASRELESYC

SMILES | EC50 [1] | EC50 [2]
CC[C@H](C)[C@H](NC(=O)[C@H](CC(C)C)NC(=O)[C@H](Cc1ccc(O)cc1)NC(=O)[C@H](CCC(=O)O)NC(=O)[C@@H](NC(=O)[C@H](Cc1ccccc1)NC(=O)[C@H](CCC(=O)O)NC(=O)C(C)(C)NC(=O)[C@H](CCC(N)=O)NC(=O)[C@H](C)NC(=O)[C@H](CCCCNC(=O)COCCOCCNC(=O)COCCOCCNC(=O)CC[C@H](NC(=O)CCCCCCCCCCCCCCCCCCC(=O)O)C(=O)O)NC(=O)[C@H](CCC(=O)O)NC(=O)[C@H](CC(=O)O)NC(=O)[C@H](CC(C)C)NC(=O)[C@](C)(CC(C)C)NC(=O)[C@@H](NC(=O)[C@H](CO)NC(=O)[C@](C)(Cc1ccccc1)NC(=O)[C@H](CC(=O)O)NC(=O)[C@H](CO)NC(=O)[C@@H](NC(=O)[C@](C)(Cc1ccccc1F)NC(=O)[C@@H](NC(=O)CNC(=O)[C@H](CCC(=O)O)NC(=O)C(C)(C)NC(=O)[C@@H](N)Cc1ccc(O)cc1)[C@@H](C)O)[C@@H](C)O)[C@@H](C)CC)[C@@H](C)CC)C(=O)N[C@@H](CCC(=O)O)C(=O)NCC(=O)NCC(=O)N1CCC[C@H]1C(=O)N[C@@H](CO)C(=O)N[C@@H](CO)C(=O)NCC(=O)N[C@@H](C)C(=O)N1CCC[C@H]1C(=O)N1CCC[C@H]1C(=O)N1CCC[C@H]1C(=O)N[C@@H](CO)C(N)=O [Example 159] (H-Y[Aib]EGT[αMePhe(2-F)]TSD[αMeF]SI[αMeL]LDEK([AEEA-AEEA-γGlu-C20 diacid])AQ[Aib]EFIEYLIEGGPSSGAPPPS-NH2) | 0.33 nM | 4.6 nM
CC[C@H](C)[C@H](NC(=O)[C@H](CC(C)C)NC(=O)[C@H](Cc1ccc(O)cc1)NC(=O)[C@@H](CCC(=O)O)NC(=O)[C@@H](NC(=O)[C@H](Cc1ccccc1)NC(=O)[C@@H](NC(=O)C(C)(C)NC(=O)[C@H](CCC(N)=O)NC(=O)[C@H](C)NC(=O)[C@H](CCCCNC(=O)COCCOCCNC(=O)COCCOCCNC(=O)CC[C@H](NC(=O)CC[C@H](NC(=O)CCCCCCCCCCCCCCCCCCC(=O)O)C(=O)O)C(=O)O)NC(=O)[C@H](CCC(=O)O)NC(=O)[C@H](CC(=O)O)NC(=O)[C@H](CC(C)C)NC(=O)[C@](C)(CC(C)C)NC(=O)[C@@H](NC(=O)[C@H](CO)NC(=O)[C@H](Cc1c[nH]cn1)NC(=O)[C@H](CC(=O)O)NC(=O)[C@H](CO)NC(=O)[C@@H](NC(=O)[C@](C)(Cc1ccccc1F)NC(=O)[C@@H](NC(=O)CNC(=O)[C@H](CCC(=O)O)NC(=O)C(C)(C)NC(=O)[C@@H](N)Cc1ccc(O)cc1)[C@@H](C)O)[C@@H](C)O)[C@@H](C)CC)[C@@H](C)O)[C@@H](C)CC)C(=O)N[C@@H](CCC(=O)O)C(=O)NCC(=O)NCC(=O)N1CCC[C@H]1C(=O)N[C@@H](CO)C(=O)N[C@@H](CO)C(=O)NCC(N)=O [Example 161] (H-Y[Aib]EGT[αMePhe(2-F)]TSDHSI[αMeL]LDEK([AEEA-AEEA-γGlu-γGlu-C20 diacid])AQ[Aib]TFI[dE]YLIEGGPSSG-NH2) | 4.8 nM | 0.254 nM
CC[C@H](C)[C@H](NC(=O)[C@H](CC(C)C)NC(=O)[C@H](Cc1c[nH]cn1)NC(=O)[C@@H](CCC(=O)O)NC(=O)[C@@H](NC(=O)[C@H](Cc1ccccc1)NC(=O)[C@@H](NC(=O)C(C)(C)NC(=O)[C@H](CCC(N)=O)NC(=O)[C@H](C)NC(=O)[C@H](CCCCNC(=O)COCCOCCNC(=O)COCCOCCNC(=O)CC[C@H](NC(=O)CC[C@H](NC(=O)CCCCCCCCCCCCCCCCCCC(=O)O)C(=O)O)C(=O)O)NC(=O)[C@H](CCC(=O)O)NC(=O)[C@H](CC(=O)O)NC(=O)[C@H](CC(C)C)NC(=O)[C@](C)(CC(C)C)NC(=O)[C@@H](NC(=O)[C@H](CO)NC(=O)[C@H](Cc1c[nH]cn1)NC(=O)[C@H](CC(=O)O)NC(=O)[C@H](CO)NC(=O)[C@@H](NC(=O)[C@](C)(Cc1ccccc1F)NC(=O)[C@@H](NC(=O)CNC(=O)[C@H](CCC(=O)O)NC(=O)C(C)(C)NC(=O)[C@@H](N)Cc1ccc(O)cc1)[C@@H](C)O)[C@@H](C)O)[C@@H](C)CC)[C@@H](C)O)[C@@H](C)CC)C(=O)N[C@@H](CCC(=O)O)C(=O)NCC(=O)NCC(=O)N1CCC[C@H]1C(=O)N[C@@H](CO)C(=O)N[C@@H](CO)C(=O)NCC(N)=O [Example 162] (H-Y[Aib]EGT[αMePhe(2-F)]TSDHSI[αMeL]LDEK([AEEA-AEEA-γGlu-γGlu-C20 diacid])AQ[Aib]TFI[dE]HLIEGGPSSG-NH2; N-terminus assumed) | 36 nM | 4.56 nM
CC[C@H](C)[C@H](NC(=O)[C@H](CC(C)C)NC(=O)[C@H](Cc1ccc(O)cc1)NC(=O)[C@@H](CCC(=O)O)NC(=O)[C@@H](NC(=O)[C@H](Cc1ccccc1)NC(=O)[C@@H](NC(=O)C(C)(C)NC(=O)[C@H](CCC(N)=O)NC(=O)[C@H](C)NC(=O)[C@H](CCCCNC(=O)COCCOCCNC(=O)COCCOCCNC(=O)CC[C@H](NC(=O)CCCCCCCCCCCCCCCCCCC(=O)O)C(=O)O)NC(=O)[C@H](CCC(=O)O)NC(=O)[C@H](CC(=O)O)NC(=O)[C@H](CC(C)C)NC(=O)[C@](C)(CC(C)C)NC(=O)[C@@H](NC(=O)[C@H](CO)NC(=O)[C@H](Cc1c[nH]cn1)NC(=O)[C@H](CC(=O)O)NC(=O)[C@H](CO)NC(=O)[C@@H](NC(=O)[C@](C)(Cc1ccccc1F)NC(=O)[C@@H](NC(=O)CNC(=O)[C@H](CCC(=O)O)NC(=O)C(C)(C)NC(=O)[C@@H](N)Cc1ccc(O)cc1)[C@@H](C)O)[C@@H](C)O)[C@@H](C)CC)[C@@H](C)O)[C@@H](C)CC)C(=O)N[C@H](CCC(=O)O)C(=O)NCC(=O)NCC(=O)N1CCC[C@H]1C(=O)N[C@@H](CO)C(=O)N[C@@H](CO)C(=O)NCC(=O)N[C@@H](C)C(=O)N1CCC[C@H]1C(=O)N1CCC[C@H]1C(=O)N1CCC[C@H]1C(=O)N[C@@H](CO)C(N)=O [Example 164] (H-Y[Aib]EGT[αMePhe(2-F)]TSDHSI[αMeL]LDEK([AEEA-AEEA-γGlu-C20 diacid])AQ[Aib]TFI[dE]YLI[dE]GGPSSGAPPPS-NH2) | 15.6 nM | 3.09 nM
CC[C@H](C)[C@H](NC(=O)[C@H](CC(C)C)NC(=O)[C@](C)(Cc1ccccc1)NC(=O)[C@@H](CCC(=O)O)NC(=O)[C@@H](NC(=O)[C@H](Cc1ccccc1)NC(=O)[C@@H](NC(=O)C(C)(C)NC(=O)[C@H](CCC(N)=O)NC(=O)[C@H](C)NC(=O)[C@H](CCCCNC(=O)COCCOCCNC(=O)COCCOCCNC(=O)CC[C@H](NC(=O)CCCCCCCCCCCCCCCCCCC(=O)O)C(=O)O)NC(=O)[C@H](CCC(=O)O)NC(=O)[C@H](CC(=O)O)NC(=O)[C@H](CC(C)C)NC(=O)[C@](C)(CC(C)C)NC(=O)[C@@H](NC(=O)[C@H](CO)NC(=O)[C@H](Cc1c[nH]cn1)NC(=O)[C@H](CC(=O)O)NC(=O)[C@H](CO)NC(=O)[C@@H](NC(=O)[C@](C)(Cc1ccccc1F)NC(=O)[C@@H](NC(=O)CNC(=O)[C@H](CCC(=O)O)NC(=O)C(C)(C)NC(=O)[C@@H](N)Cc1ccc(O)cc1)[C@@H](C)O)[C@@H](C)O)[C@@H](C)CC)[C@@H](C)O)[C@@H](C)CC)C(=O)N[C@H](CCC(=O)O)C(=O)NCC(=O)NCC(=O)N1CCC[C@H]1C(=O)N[C@@H](CO)C(=O)N[C@@H](CO)C(=O)NCC(=O)N[C@@H](C)C(=O)N1CCC[C@H]1C(=O)N1CCC[C@H]1C(=O)N1CCC[C@H]1C(=O)N[C@@H](CO)C(N)=O [Example 165] (H-Y[Aib]EGT[αMePhe(2-F)]TSDHSI[αMeL]LDEK([AEEA-AEEA-γGlu-C20 diacid])AQ[Aib]TFI[dE][αMeF]LI[dE]GGPSSGAPPPS-NH2) | 5.81 nM | 1.04 nM
CC[C@H](C)[C@H](NC(=O)[C@H](CC(C)C)NC(=O)[C@H](Cc1ccc(O)cc1)NC(=O)[C@@H](CCC(=O)O)NC(=O)[C@@H](NC(=O)[C@H](Cc1ccccc1)NC(=O)[C@@H](NC(=O)C(C)(C)NC(=O)[C@H](CCC(N)=O)NC(=O)[C@H](C)NC(=O)[C@H](CCCCNC(=O)COCCOCCNC(=O)COCCOCCNC(=O)CC[C@H](NC(=O)CCCCCCCCCCCCCCCCCCC(=O)O)C(=O)O)NC(=O)[C@H](CCC(=O)O)NC(=O)[C@H](CC(=O)O)NC(=O)[C@H](CC(C)C)NC(=O)[C@](C)(CC(C)C)NC(=O)[C@@H](NC(=O)[C@H](CO)NC(=O)[C@H](Cc1c[nH]cn1)NC(=O)[C@H](CC(=O)O)NC(=O)[C@H](CO)NC(=O)[C@@H](NC(=O)[C@](C)(Cc1ccccc1F)NC(=O)[C@@H](NC(=O)CNC(=O)[C@H](CCC(=O)O)NC(=O)C(C)(C)NC(=O)[C@@H](N)Cc1ccc(O)cc1)[C@@H](C)O)[C@@H](C)O)[C@@H](C)CC)[C@@H](C)O)[C@@H](C)CC)C(=O)N[C@@H](CCC(=O)O)C(=O)NCC(=O)NCC(N)=O [Example 166] (H-Y[Aib]EGT[αMePhe(2-F)]TSDHSI[αMeL]LDEK([AEEA-AEEA-γGlu-C20 diacid])AQ[Aib]TFI[dE]YLIEGG-NH2; N-terminus assumed) | 4.08 nM | 0.355 nM
